Tests used:
Type in all cases: in vivo
Monochoria vaginalis [1] = assay: Test Example 1: herbicidal activity, application before weed generation in submerged conditions; conditions: Application herbicide amount 320 g/ha; Seventeenth Table
Summary of the method: (§1)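 Submerged pot test: alluvial soil, 4 cm water, seeds sown mixed, 2.5-leaf rice transplanted; emulsion in water applied to surface day of sowing, dose g/ha; greenhouse 25–30° C.; 3 wk; 0–5 rating.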

[2] = system: Echinochloa oryzacola Vasing.; assay: as above; conditions: Application herbicide amount 320 g/ha; Seventeenth Table
Summary of the method: as §1

Scirpus juncoides [3] = assay: as above; conditions: Application herbicide amount 320 g/ha; Seventeenth Table
Summary of the method: as §1

Monochoria vaginalis [4] = assay: Test Example 2: herbicidal activity, application during weed generation in submerged conditions; conditions: Eighteenth Table; application herbicide amount 320 g/ha
Summary of the method: (§2)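 Paddy-type pot test: flooded soil, 4 cm depth, greenhouse 25–30 °C. Emulsion formulation diluted in water, applied to water surface at 1–2 leaf stage; rate expressed as g/ha. Read-out at 3 wk, 0–5 score.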

[5] = system: Echinochloa oryzacola Vasing.; assay: as above; conditions: Eighteenth Table; application herbicide amount 320 g/ha
Summary of the method: as §2

Scirpus juncoides [6] = assay: as above; conditions: Eighteenth Table; application herbicide amount 320 g/ha
Summary of the method: as §2

[7] = system: transplanted Oryza sativa; assay: Test Example 1: effect on crop, application before weed generation in submerged conditions; conditions: Application herbicide amount 320 g/ha; Seventeenth Table
Summary of the method: as §1

Row | Structure (SMILES) | C: Monochoria vaginalis (herbicidal effect grade) (Monochoria vaginalis [1]) | A: Echinochloa oryzicola Vasing. (herbicidal effect grade) [2] | B: Scirpus juncoides (herbicidal effect grade) (Scirpus juncoides [3]) | C (Monochoria vaginalis) herbicidal ratio grade (Monochoria vaginalis [4]) | A (Echinochloa oryzicola Vasing.) herbicidal ratio grade [5] | B (Scirpus juncoides) herbicidal ratio grade (Scirpus juncoides [6]) | a: transplanted Oryza sativa (effect on crop grade) [7]
1 | Cc1nnc(NC(=O)c2ccc(C(F)(F)F)n3c(-c4cc5ccccc5n4C)nnc23)o1 [1-059] | 2 (Herbicidal ratio of 20% or more and less than 40%) | 2 (Herbicidal ratio of 20% or more and less than 40%) | 3 (Herbicidal ratio of 40% or more and less than 70%) | 2 (Herbicidal ratio of 20% or more and less than 40%) | 2 (Herbicidal ratio of 20% or more and less than 40%) | 3 (Herbicidal ratio of 40% or more and less than 70%) | 0 (Herbicidal ratio of 5% or less (almost no effect))
2 | COCCOC(=O)Cc1nnc2c(C(=O)Nc3nnc(C)o3)ccc(C(F)(F)F)n12 [1-060] | 3 (Herbicidal ratio of 40% or more and less than 70%) | 4 (Herbicidal ratio of 70% or more and less than 90%) | 4 (Herbicidal ratio of 70% or more and less than 90%) | 2 (Herbicidal ratio of 20% or more and less than 40%) | 2 (Herbicidal ratio of 20% or more and less than 40%) | 3 (Herbicidal ratio of 40% or more and less than 70%) | 2 (Herbicidal ratio of 20% or more and less than 40%)
3 | Cc1nnc(NC(=O)c2ccc(C(F)(F)F)n3c(SCC4CC4)nnc23)o1 [1-115] | 3 (Herbicidal ratio of 40% or more and less than 70%) | 5 (Herbicidal ratio of 90% or more (almost completely withered)) | 4 (Herbicidal ratio of 70% or more and less than 90%) |  | 3 (Herbicidal ratio of 40% or more and less than 70%) | 3 (Herbicidal ratio of 40% or more and less than 70%) | 0 (Herbicidal ratio of 5% or less (almost no effect))
4 | CSCCNc1nnc2c(C(=O)Nc3nnc(C)o3)ccc(C(F)(F)F)n12 [1-130] | 0 (Herbicidal ratio of 5% or less (almost no effect)) | 1 (Herbicidal ratio of 5% or more and less than 20%) | 0 (Herbicidal ratio of 5% or less (almost no effect)) |  |  |  | 1 (Herbicidal ratio of 5% or more and less than 20%)
5 | CC(C)c1nnc2c(C(=O)Nc3nnc(C[S+](C)[O-])o3)ccc(C(F)(F)F)n12 (centres unmarked) [1-143] | 2 (Herbicidal ratio of 20% or more and less than 40%) | 0 (Herbicidal ratio of 5% or less (almost no effect)) | 0 (Herbicidal ratio of 5% or less (almost no effect)) |  |  |  | 0 (Herbicidal ratio of 5% or less (almost no effect))
6 | COc1ccc(N(C)c2nnc3c(C(=O)Nc4nnc(C)o4)ccc(C(F)(F)F)n23)cc1 [1-165] | 4 (Herbicidal ratio of 70% or more and less than 90%) | 4 (Herbicidal ratio of 70% or more and less than 90%) | 3 (Herbicidal ratio of 40% or more and less than 70%) |  | 2 (Herbicidal ratio of 20% or more and less than 40%) | 2 (Herbicidal ratio of 20% or more and less than 40%) | 0 (Herbicidal ratio of 5% or less (almost no effect))
7 | COc1ccc(CN(C)c2nnc3c(C(=O)Nc4nnc(C)o4)ccc(C(F)(F)F)n23)cc1 [1-167] | 0 (Herbicidal ratio of 5% or less (almost no effect)) | 4 (Herbicidal ratio of 70% or more and less than 90%) | 2 (Herbicidal ratio of 20% or more and less than 40%) |  |  |  | 0 (Herbicidal ratio of 5% or less (almost no effect))
